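Grown in 96-well plates, cells were treated for 48 hours with each compound at five concentrations. Insufficient inhibition: endpoint recorded as highest concentration tested. The concentration for 50% growth inhibition is given as GI50. The concentration for full growth arrest is given as TGI.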
Columns and labels:
Test in all cases: NCI-60 cell line screen, 48 h
SF-268 CNS = tested on: SF-268 CNS
CAKI-1 renal = tested on: CAKI-1 renal
SK-OV-3 ovarian = tested on: SK-OV-3 ovarian
COLO 205 colon = tested on: COLO 205 colon
BT-549 breast = tested on: BT-549 breast
SF-539 CNS = tested on: SF-539 CNS
NCI/ADR-RES ovarian = tested on: NCI/ADR-RES ovarian
HT29 colon = tested on: HT29 colon
SN12C renal = tested on: SN12C renal
LOX IMVI melanoma = tested on: LOX IMVI melanoma

Cc1cnc(NCCCN(C)C)c2c1[nH]c1ccc3cc(O)ccc3c12
TGI (SF-268 CNS): 2.07 µM
TGI (CAKI-1 renal): 4.18 µM
TGI (SK-OV-3 ovarian): 2.75 µM
TGI (COLO 205 colon): 1.57 µM
TGI (BT-549 breast): 3.12 µM
TGI (SF-539 CNS): 1.64 µM
TGI (NCI/ADR-RES ovarian): 20.1 µM
TGI (HT29 colon): 2.53 µM
TGI (SN12C renal): 1.78 µM
TGI (LOX IMVI melanoma): 1.37 µM

Fc1ccc(NC(=S)SCc2ccc3c(c2)OCO3)cc1F
TGI (SF-268 CNS): 52.8 µM
TGI (CAKI-1 renal): > 100 µM
TGI (SK-OV-3 ovarian): > 100 µM
TGI (COLO 205 colon): 44.9 µM
TGI (BT-549 breast): 51.4 µM
TGI (SF-539 CNS): 53.5 µM
TGI (NCI/ADR-RES ovarian): 75.7 µM
TGI (HT29 colon): 45.3 µM
TGI (SN12C renal): 39.4 µM
TGI (LOX IMVI melanoma): 28.6 µM

COc1ccc(CC2c3cc4c(cc3CCN2C)OCO4)c(C=O)c1OC (stereo not drawn)
TGI (SF-268 CNS): > 100 µM
TGI (CAKI-1 renal): > 100 µM
TGI (SK-OV-3 ovarian): > 100 µM
TGI (COLO 205 colon): > 100 µM
TGI (BT-549 breast): > 100 µM
TGI (SF-539 CNS): > 100 µM
TGI (NCI/ADR-RES ovarian): > 100 µM
TGI (HT29 colon): > 100 µM
TGI (SN12C renal): > 100 µM
TGI (LOX IMVI melanoma): > 100 µM

Cc1nc2sccn2c1-c1csc(Nc2ccccc2Cl)n1
GI50 (SF-268 CNS): 8.33 µM
TGI (SF-268 CNS): 86.5 µM
GI50 (CAKI-1 renal): 3.06 µM
TGI (CAKI-1 renal): 40.7 µM
GI50 (SK-OV-3 ovarian): 8.4 µM
TGI (SK-OV-3 ovarian): 75.2 µM
GI50 (COLO 205 colon): 5.87 µM
TGI (COLO 205 colon): 21 µM
GI50 (BT-549 breast): 3.6 µM
TGI (BT-549 breast): 23.4 µM
GI50 (SF-539 CNS): 3.2 µM
TGI (SF-539 CNS): 16.3 µM
GI50 (NCI/ADR-RES ovarian): 2.61 µM
TGI (NCI/ADR-RES ovarian): 14.5 µM
GI50 (HT29 colon): 3.08 µM
TGI (HT29 colon): 13.6 µM
GI50 (SN12C renal): 3.58 µM
TGI (SN12C renal): > 100 µM
GI50 (LOX IMVI melanoma): 4.4 µM
TGI (LOX IMVI melanoma): 21.6 µM

Cc1ccsc1C(=S)Nc1ccc(Cl)c(/C=N/OC(C)(C)C)c1
TGI (SF-268 CNS): > 100 µM
TGI (CAKI-1 renal): > 100 µM
TGI (SK-OV-3 ovarian): > 100 µM
TGI (COLO 205 colon): 33.7 µM
TGI (BT-549 breast): 59.8 µM
TGI (SF-539 CNS): > 100 µM
TGI (NCI/ADR-RES ovarian): > 100 µM
TGI (HT29 colon): 27.1 µM
TGI (SN12C renal): > 100 µM
TGI (LOX IMVI melanoma): 48.8 µM

O=C(Nc1ccc(-n2ccc3c(NC(=O)c4ccccc4)nccc32)cc1)c1ccc(Cl)c(C(F)(F)F)c1
GI50 (SF-268 CNS): 1.08 µM
TGI (SF-268 CNS): 11.9 µM
GI50 (CAKI-1 renal): 0.305 µM
TGI (CAKI-1 renal): 11.8 µM
GI50 (SK-OV-3 ovarian): 1.18 µM
TGI (SK-OV-3 ovarian): 20.7 µM
GI50 (COLO 205 colon): 1.83 µM
TGI (COLO 205 colon): 11 µM
GI50 (BT-549 breast): 6.5 µM
TGI (BT-549 breast): > 50 µM
GI50 (SF-539 CNS): 0.273 µM
TGI (SF-539 CNS): 14.4 µM
GI50 (NCI/ADR-RES ovarian): 0.96 µM
TGI (NCI/ADR-RES ovarian): 15.2 µM
GI50 (HT29 colon): 0.183 µM
TGI (HT29 colon): 6.31 µM
GI50 (SN12C renal): 2.25 µM
TGI (SN12C renal): 18.3 µM
GI50 (LOX IMVI melanoma): 0.112 µM
TGI (LOX IMVI melanoma): 3.29 µM

Nc1ccccc1C#C/C=C\C#Cc1ccccc1OC(F)(F)F
GI50 (SF-268 CNS): 6.44 µM
TGI (SF-268 CNS): 32 µM
GI50 (CAKI-1 renal): 4.42 µM
TGI (CAKI-1 renal): 28.2 µM
GI50 (SK-OV-3 ovarian): 7.12 µM
TGI (SK-OV-3 ovarian): 67.7 µM
GI50 (COLO 205 colon): 5.19 µM
TGI (COLO 205 colon): 28 µM
GI50 (BT-549 breast): 5.78 µM
TGI (BT-549 breast): 22.5 µM
GI50 (SF-539 CNS): 3.5 µM
TGI (SF-539 CNS): 13.3 µM
GI50 (NCI/ADR-RES ovarian): 2.82 µM
TGI (NCI/ADR-RES ovarian): 11.1 µM
GI50 (HT29 colon): 3.62 µM
TGI (HT29 colon): 28.7 µM
GI50 (SN12C renal): 9.85 µM
TGI (SN12C renal): 26.8 µM
GI50 (LOX IMVI melanoma): 7.85 µM
TGI (LOX IMVI melanoma): 27 µM

COc1cc2c(c(OC)c1OC)-c1ccc(NNC(N)=S)c(=O)cc1[C@@H](NC(C)=O)CC2
GI50 (SF-268 CNS): 0.509 µM
TGI (SF-268 CNS): > 100 µM
GI50 (CAKI-1 renal): 11.7 µM
TGI (CAKI-1 renal): > 100 µM
GI50 (SK-OV-3 ovarian): 0.817 µM
TGI (SK-OV-3 ovarian): > 100 µM
GI50 (COLO 205 colon): 0.244 µM
TGI (COLO 205 colon): 0.529 µM
GI50 (BT-549 breast): 0.37 µM
GI50 (SF-539 CNS): 0.338 µM
TGI (SF-539 CNS): 4.31 µM
GI50 (NCI/ADR-RES ovarian): 19.4 µM
TGI (NCI/ADR-RES ovarian): > 100 µM
GI50 (HT29 colon): 0.365 µM
TGI (HT29 colon): > 100 µM
GI50 (SN12C renal): 0.881 µM
TGI (SN12C renal): > 100 µM
GI50 (LOX IMVI melanoma): 0.687 µM
TGI (LOX IMVI melanoma): > 100 µM

Nc1c(C(=O)c2cccc(CCS(N)(=O)=O)c2)cnn1-c1ccc(F)cc1
GI50 (SF-268 CNS): > 25 µM
TGI (SF-268 CNS): > 25 µM
GI50 (CAKI-1 renal): > 25 µM
TGI (CAKI-1 renal): > 25 µM
GI50 (SK-OV-3 ovarian): > 25 µM
TGI (SK-OV-3 ovarian): > 25 µM
GI50 (COLO 205 colon): > 25 µM
TGI (COLO 205 colon): > 25 µM
GI50 (BT-549 breast): > 25 µM
TGI (BT-549 breast): > 25 µM
GI50 (SF-539 CNS): > 25 µM
TGI (SF-539 CNS): > 25 µM
GI50 (NCI/ADR-RES ovarian): > 25 µM
TGI (NCI/ADR-RES ovarian): > 25 µM
GI50 (HT29 colon): > 25 µM
TGI (HT29 colon): > 25 µM
GI50 (SN12C renal): > 25 µM
TGI (SN12C renal): > 25 µM
GI50 (LOX IMVI melanoma): > 25 µM
TGI (LOX IMVI melanoma): > 25 µM

Cc1ccc(NC(=O)Nc2ccc(-c3cccnc3)cc2N2CCC(CO)CC2)cc1
GI50 (SF-268 CNS): 3.05 µM
TGI (SF-268 CNS): > 100 µM
GI50 (CAKI-1 renal): 3.82 µM
TGI (CAKI-1 renal): > 100 µM
GI50 (SK-OV-3 ovarian): 3.93 µM
TGI (SK-OV-3 ovarian): > 100 µM
GI50 (COLO 205 colon): 2.85 µM
TGI (COLO 205 colon): 11.1 µM
GI50 (BT-549 breast): 1.96 µM
TGI (BT-549 breast): 9.2 µM
GI50 (SF-539 CNS): 1.68 µM
TGI (SF-539 CNS): 4.67 µM
GI50 (NCI/ADR-RES ovarian): 3.62 µM
TGI (NCI/ADR-RES ovarian): > 100 µM
GI50 (HT29 colon): 1.47 µM
TGI (HT29 colon): 9.93 µM
GI50 (SN12C renal): 4.49 µM
TGI (SN12C renal): > 100 µM
GI50 (LOX IMVI melanoma): 3.6 µM
TGI (LOX IMVI melanoma): > 100 µM

CCOC1Oc2ccccc2C(=O)/C1=C/Nc1ccc(C(C)=O)cc1 (stereo not drawn)
GI50 (SF-268 CNS): 33.7 µM
TGI (SF-268 CNS): > 100 µM
GI50 (CAKI-1 renal): 19 µM
TGI (CAKI-1 renal): 45.3 µM
GI50 (SK-OV-3 ovarian): 44.4 µM
TGI (SK-OV-3 ovarian): > 100 µM
GI50 (COLO 205 colon): 55.2 µM
TGI (COLO 205 colon): > 100 µM
GI50 (BT-549 breast): 29 µM
TGI (BT-549 breast): 92.3 µM
GI50 (SF-539 CNS): 23.9 µM
TGI (SF-539 CNS): 56.6 µM
GI50 (NCI/ADR-RES ovarian): 15.6 µM
TGI (NCI/ADR-RES ovarian): 38.6 µM
GI50 (HT29 colon): 36.3 µM
TGI (HT29 colon): > 100 µM
GI50 (SN12C renal): 19.4 µM
TGI (SN12C renal): 47.8 µM
GI50 (LOX IMVI melanoma): 18.9 µM
TGI (LOX IMVI melanoma): 58.5 µM

COc1cccc(-c2cc(-c3cccc(NS(C)(=O)=O)c3)nc(N)c2C#N)c1O
GI50 (SF-268 CNS): 0.587 µM
TGI (SF-268 CNS): > 100 µM
GI50 (CAKI-1 renal): 0.141 µM
TGI (CAKI-1 renal): 88.9 µM
GI50 (SK-OV-3 ovarian): 0.149 µM
TGI (SK-OV-3 ovarian): > 100 µM
GI50 (COLO 205 colon): 0.128 µM
TGI (COLO 205 colon): 1.91 µM
GI50 (BT-549 breast): 0.716 µM
TGI (BT-549 breast): > 47.4 µM
GI50 (SF-539 CNS): 0.154 µM
TGI (SF-539 CNS): > 100 µM
GI50 (NCI/ADR-RES ovarian): 0.154 µM
TGI (NCI/ADR-RES ovarian): 2.34 µM
GI50 (HT29 colon): 0.0924 µM
GI50 (SN12C renal): 0.505 µM
TGI (SN12C renal): > 100 µM
GI50 (LOX IMVI melanoma): 0.136 µM
TGI (LOX IMVI melanoma): > 100 µM

CCOC(=O)Cn1c(C(F)(F)F)nc2nc(Cl)c(Cl)nc21
TGI (SF-268 CNS): > 100 µM
TGI (CAKI-1 renal): 11.5 µM
TGI (SK-OV-3 ovarian): > 100 µM
TGI (COLO 205 colon): > 100 µM
TGI (BT-549 breast): > 100 µM
TGI (SF-539 CNS): > 85.4 µM
TGI (NCI/ADR-RES ovarian): > 100 µM
TGI (HT29 colon): > 100 µM
TGI (SN12C renal): > 100 µM
TGI (LOX IMVI melanoma): > 100 µM

C=C(C)C(OC)C(O)CC1(C)CC(O)CC(C)(C2CCC3OC(C4(C)CCC(Br)C(C)(C)O4)CCC3(C)O2)O1 (stereo not drawn)
GI50 (SF-268 CNS): 18.9 µM
TGI (SF-268 CNS): 40.3 µM
GI50 (CAKI-1 renal): 18.1 µM
TGI (CAKI-1 renal): 38.3 µM
GI50 (SK-OV-3 ovarian): 22.8 µM
TGI (SK-OV-3 ovarian): 54.3 µM
GI50 (COLO 205 colon): 21.7 µM
TGI (COLO 205 colon): 45.5 µM
GI50 (BT-549 breast): 19.9 µM
TGI (BT-549 breast): 38.4 µM
GI50 (SF-539 CNS): 18.9 µM
TGI (SF-539 CNS): 36.5 µM
GI50 (NCI/ADR-RES ovarian): 18.3 µM
TGI (NCI/ADR-RES ovarian): 39.6 µM
GI50 (HT29 colon): 30.3 µM
TGI (HT29 colon): > 78.9 µM
GI50 (SN12C renal): 18.3 µM
TGI (SN12C renal): 39.4 µM
GI50 (LOX IMVI melanoma): 26.1 µM
TGI (LOX IMVI melanoma): > 58.9 µM

From PubChem BioAssay (NCI)
